Measured values from patent US20080064725A1, “INTRATHECAL ADMINISTRATION OF TRIPTAN COMPOSITIONS TO TREAT NON-MIGRAINE PAIN” (priority 2006, published 2008).

Key:
CD1 male mice [1] = assay: formalin test of pain behavior
CD1 male mice [2] = assay: radiant heat to the hindpaw (Hargreaves test), baseline thresholds; assay type: in vivo
CD1 male mice [3] = assay: hot plate test of acute thermal pain; assay type: in vivo
CD1 male mice [4] = assay: carrageenan-induced thermal and mechanical hypersensitivity
CD1 male mice [5] = assay: spared nerve injury (SNI) model of neuropathic pain; assay type: in vivo
Protocol: Spared nerve injury (SNI) model of neuropathic pain. A model of partial sciatic nerve injury was used in which the peroneal and sural nerves were selectively ligated and cut, sparing the tibial nerve. […] Animals were injected in a blinded cross-over manner, in which half of the animals received sumatriptan on one day and saline on the other.

CD1 male mice [6] = assay: mechanical nociceptive thresholds with calibrated monofilaments, baseline; assay type: in vivo
CD1 male mice [7] = assay: Rotarod test for sedative and sensorimotor effects; assay type: in vivo; details: SC 300, 600 μg/kg or IT 0.06, 0.60 μg; one hour after dosing
Protocol: To screen for sedative and other adverse sensorimotor effects, mice were tested on a Rotarod (Ugo Basile, Comerio, Italy). The time in which mice were able to balance on a rod rotating on its axis at a constant velocity of 15 rpm were measured. The total duration of each trial was 300 sec. On the day prior to the test, animals accommodated to the task with three separate training trials. […] A single trial was used for each dose and route; reported times represent % change from the baseline value for each animal ±SEM.

CD1 male mice [8] = assay: CFA-induced persistent inflammation, mechanical hyperalgesia; assay type: in vivo; details: IT 0.0006, 0.006, 0.01, 0.06 μg; days 3-7 after CFA
Protocol: Intrathecal sumatriptan reduces the hyperalgesic effects of persistent inflammation induced by Complete Freunds Agent (CFA). CFA injection produces a prolonged period of mechanical hyperalgesia that persists and remains stable during days 3-7 after injection into the plantar surface of the hindpaw. CD1 male mice were used. Mechanical thresholds were tested on the first day, prior to a single injection of CFA to a hindpaw (baseline). By day 3 after CFA injection animals were hyperalgesic (post CFA 3d). Animals were tested for a sumatriptan response on 4 successive days (days 3-6) after CFA. A mechanical threshold was determined on each successive day prior to the administration of intrathecal sumatriptan. Doses of sumatriptan tested are: 0.0006 μg, 0.006 μg, 0.01 μg, and 0.06 μg, all in the volume of 5 μl. Mechanical thresholds were then determined at 30 and 60 min after the injection. The average withdrawal thresholds for the CFA-treated hindpaw at […] after the administration of each dose of sumatriptan was measured. The antihyperalgesic effect of each of these doses, expressed as a percent of the pre-injection threshold for that day, were compared to the original baseline.
Persistent inflammation after CFA. […] Hindpaw swelling pre- and 72 hours postinjection was measured to confirm the effects of the injection.

[9] = sumatriptan SC 300, 600 μg/kg or IT 0.06, 0.60 μg, unstimulated baseline state
[10] = intrathecal, 24 hours after carrageenan to hindpaw, dose-dependent

In the case of `CN1CC[C@]23c4c5ccc(O)c4O[C@H]2[C@@H](O)C=C[C@H]3[C@H]1C5.O=S(=O)(O)O` [morphine, morphine sulfate], the “formalin test, first phase pain behavior” value (CD1 male mice [1]; positive control, 10 nmol IT) is reported as “eliminated”, the “formalin test, second phase pain behavior” value (CD1 male mice [1]; positive control, 10 nmol IT) is reported as “eliminated” and the “Hargreaves test analgesic response” value (CD1 male mice [2]; positive control, 10 nmol IT) is reported as “robust analgesic response”. For the same compound, the “hot-plate test analgesic response” value (CD1 male mice [3]; positive control, 10 nmol IT) was “robust analgesic response”, the “analgesia in carrageenan model” value (CD1 male mice [4]; IT morphine) was “profound analgesia, with all animals reaching the cutoff latency” and the “analgesia in SNI model” value (CD1 male mice [5]; IT morphine) was “profound analgesia, to cutoff latencies”. The “mechanical pain test analgesic response” value (CD1 male mice [6]; positive control, 10 nmol IT) was “robust analgesic response”.

For `CNS(=O)(=O)Cc1ccc2[nH]cc(CCN(C)C)c2c1` [sumatriptan], the “formalin test, second phase (11-60 min) pain behavior” value (CD1 male mice [1]; IT 0.006, 0.06, 0.60 μg one hour before formalin, dose-dependent) was “profound reduction of pain behavior”, the “formalin test, second phase pain behavior” value (CD1 male mice [1]; systemic (SC) 300, 600 μg/kg one hour before formalin) was “modestly reduced second phase behaviors, but only at the highest dose tested” and the “Hargreaves test (radiant heat to hindpaw) threshold” value (CD1 male mice [2]; [9]) was “no significant changes in threshold”. For the same compound, the “sedation or sensorimotor incoordination on the Rotarod test” value (CD1 male mice [7]) was “no evidence of confounding deficits due to sedation or sensorimotor incoordination”, the “hot-plate test threshold (latency)” value (CD1 male mice [3]; [9]) was “no significant changes in threshold” and the “time after injection at which antinociceptive effect was significant” value (CD1 male mice [4]; IT sumatriptan, carrageenan model) was 30 min. For the same compound, the “behavior after carrageenan, SC drug compared with control IT saline” value (CD1 male mice [4]; SC sumatriptan) was “did not differ”, the “pain thresholds of unstimulated contralateral hindlimb” value (CD1 male mice [4]; carrageenan model, sumatriptan) was “did not affect pain thresholds” and the “thermal latencies versus baseline (analgesic effect beyond reversal of hyperalgesia)” value (CD1 male mice [4]; intrathecal sumatriptan, carrageenan-treated hindpaw) was “latencies exceeded those at baseline”. For the same compound, the “mechanical hypersensitivity after carrageenan” value (CD1 male mice [4]; [10]) was “completely reversed”, the “thermal hypersensitivity after carrageenan” value (CD1 male mice [4]; [10]) was “completely reversed” and the “mechanical hypersensitivity produced by nerve injury (SNI)” value (CD1 male mice [5]; SNI 7 d, regardless of dose or route of delivery, IT 0.6 μg, 30-120 min after drug) was “completely without effect”. For the same compound, the “nociceptive thresholds of unaffected contralateral leg” value (CD1 male mice [5]; SNI model, IT sumatriptan) was “unaffected”, the “mechanical hypersensitivity after intraplantar CFA” value (CD1 male mice [8]) was “reduced mechanical hypersensitivity” and the “mechanical pain threshold, calibrated monofilaments” value (CD1 male mice [6]; [9]) was “no significant changes in threshold”.
